Reference: US20230065577A1, “COMBINATIONS” (Recurium IP Holdings, LLC, priority 2019, published 2023)
Like-named read-outs stand apart in the source and are kept apart here.

What was measured:
Assay type in all cases: cell-based
[1] = test system: ZR-75-1 breast cancer cells; test: CTG Assay (CellTiter-Glo Luminescent Cell Viability Assay), ZR-75-1; conditions: Homo sapiens, 72 h
Protocol: (§1) Cell proliferation was measured using the CellTiter-Glo® Luminescent Cell Viability Assay. The assay involved the addition of a single reagent (CellTiter-Glo® Reagent) directly to cells cultured in serum-supplemented medium. DMS-53 (ATCC, CRL-2062), MV4-11 (ATCC, CRL-9591), MCF-7 (ATCC, HTB-22) and ZR-75-1 (ATCC, CRL-1500) cells were cultured according to ATCC recommendations and were seeded at 20,000 cells per well.
(§2) Each compound evaluated was prepared as a DMSO stock solution (10 mM). For DMS-53 and MV4-11 cell lines, Compounds 1 and 5a were tested in triplicate using the respective IC50 concentrations indicated in Table 2. The MCF-7 combination assay was performed in duplicate with a 10-point serial dilution curve (1:3 dilution) for Compounds 1 and 5a, and a 10-point serial dilution curve (1:5 dilution) when treated in combination. The highest compound concentration was 10 μM with a 0.1% final DMSO concentration. Plates were incubated at 37° C., 5% CO2 for 72 h and then equilibrated at room temperature for approximately 30 min. […] Luminescence (RLU (relative light unit)) was recorded using a SpectraMAX, M5e plate reader according to CellTiter-Glo protocol. Percent inhibition was calculated using the following formula: % inhibition=(RLU*100/(RLU of the cell background)). IC50 of each compound was calculated using GraphPad Prism by nonlinear regression analysis.

DMS-53 cells = test: CTG Assay (CellTiter-Glo Luminescent Cell Viability Assay), DMS-53; conditions: Homo sapiens
Protocol: as §1, §2

MV4-11 cells = test: CTG Assay (CellTiter-Glo Luminescent Cell Viability Assay), MV4-11; conditions: Homo sapiens
Protocol: as §1, §2

[2] = test system: MCF-7 breast cancer cells; test: CTG Assay (CellTiter-Glo Luminescent Cell Viability Assay), MCF-7 combination assay; conditions: Homo sapiens, MCF7, 72 h, 10-point dilution, top 10 μM
Protocol: as §1, §2

[3] = read-out: Absolute IC50 Based on % Inhibition
[4] = read-out: Relative IC50 Based on % Inhibition
[5] = single agent, IC50 used as test concentration, read-out: Concentration (respective IC50 concentration)

IC50 [1, 3]: 1.77 µM
IC50 [1, 4]: 1.24 µM
IC50 (MV4-11 cells; [5]): 0.015 µM
IC50 [2, 3]: 0.346 µM
IC50 [2, 4]: 0.307 µM
SMILES: C=CCn1c(=O)c2cnc(Nc3ccc(N4CCN(C)CC4)cc3)nc2n1-c1cccc(C(C)(C)O)n1 [Compound 1]
inhibition at 0.65 µM (DMS-53 cells; 650 nM, 72 h, triplicate): 37%
IC50 (DMS-53 cells; [5]): 0.65 µM
inhibition at 0.015 µM (MV4-11 cells; 15 nM, 72 h, triplicate): 37%
